Results published in ChEMBL document CHEMBL3045645, “Organophosphorus derivatives containing isatin-3-hydrazones as chemotherapeutants against fungal pathogens of sugarcane” (2008).
In brackets after ≈: the same amount, converted by molar mass.

Tests used:
Type in all cases: functional
Fusarium oxysporum [1] = assay: Antifungal activity against Fusarium oxysporum assessed as mycelial growth inhibition at 100 ppm at 28 +/-2 degC after 7 days by food poison technique; conditions: 168 h, read-out: GI
Colletotrichum falcatum [2] = assay: Antifungal activity against Glomerella tucumanensis assessed as mycelial growth inhibition at 100 ppm at 28 +/-2 degC after 7 days by food poison technique; conditions: 168 h, read-out: GI
Curvularia pallescens [3] = assay: Antifungal activity against Cochliobolus pallescens assessed as mycelial growth inhibition at 10 ppm at 28 +/-2 degC after 7 days by food poison technique; conditions: 168 h, read-out: GI
Curvularia pallescens [4] = assay: Antifungal activity against Cochliobolus pallescens assessed as mycelial growth inhibition at 100 ppm at 28 +/-2 degC after 7 days by food poison technique; conditions: 168 h, read-out: GI
Colletotrichum falcatum [5] = assay: Antifungal activity against Glomerella tucumanensis assessed as mycelial growth inhibition at 10 ppm at 28 +/-2 degC after 7 days by food poison technique; conditions: 168 h, read-out: GI
Fusarium oxysporum [6] = assay: Antifungal activity against Fusarium oxysporum assessed as mycelial growth inhibition at 1000 ppm at 28 +/-2 degC after 7 days by food poison technique; conditions: 168 h, read-out: GI
Curvularia pallescens [7] = assay: Antifungal activity against Cochliobolus pallescens assessed as mycelial growth inhibition at 1000 ppm at 28 +/-2 degC after 7 days by food poison technique; conditions: 168 h, read-out: GI
Fusarium oxysporum [8] = assay: Antifungal activity against Fusarium oxysporum assessed as mycelial growth inhibition at 10 ppm at 28 +/-2 degC after 7 days by food poison technique; conditions: 168 h, read-out: GI
Colletotrichum falcatum [9] = assay: Antifungal activity against Glomerella tucumanensis assessed as mycelial growth inhibition at 1000 ppm at 28 +/-2 degC after 7 days by food poison technique; conditions: 168 h, read-out: GI
Colletotrichum falcatum [10] = assay: Antifungal activity against Glomerella tucumanensis assessed as mycelial growth inhibition at 28 +/-2 degC after 7 days by food poison technique; conditions: 168 h
Fusarium oxysporum [11] = assay: Antifungal activity against Fusarium oxysporum assessed as mycelial growth inhibition at 28 +/-2 degC after 7 days by food poison technique; conditions: 168 h
Curvularia pallescens [12] = assay: Antifungal activity against Cochliobolus pallescens assessed as mycelial growth inhibition at 28 +/-2 degC after 7 days by food poison technique; conditions: 168 h
Fusarium oxysporum [13] = assay: Ratio of copper oxychloride MIC to compound MIC for Fusarium oxysporum after 7 days by food poison technique
Curvularia pallescens [14] = assay: Ratio of mancozeb MIC to compound MIC for Cochliobolus pallescens after 7 days by food poison technique
Curvularia pallescens [15] = assay: Ratio of copper oxychloride MIC to compound MIC for Cochliobolus pallescens after 7 days by food poison technique
Fusarium oxysporum [16] = assay: Ratio of mancozeb MIC to compound MIC for Fusarium oxysporum after 7 days by food poison technique
Fusarium oxysporum [17] = assay: Ratio of thiophanate MIC to compound MIC for Fusarium oxysporum after 7 days by food poison technique
Colletotrichum falcatum [18] = assay: Ratio of carbendazim MIC to compound MIC for Glomerella tucumanensis after 7 days by food poison technique
Curvularia pallescens [19] = assay: Ratio of thiophanate MIC to compound MIC for Cochliobolus pallescens after 7 days by food poison technique
Curvularia pallescens [20] = assay: Ratio of carbendazim MIC to compound MIC for Cochliobolus pallescens after 7 days by food poison technique
Colletotrichum falcatum [21] = assay: Ratio of mancozeb MIC to compound MIC for Glomerella tucumanensis after 7 days by food poison technique
Colletotrichum falcatum [22] = assay: Ratio of copper oxychloride MIC to compound MIC for Glomerella tucumanensis after 7 days by food poison technique
Fusarium oxysporum [23] = assay: Ratio of carbendazim MIC to compound MIC for Fusarium oxysporum after 7 days by food poison technique
Colletotrichum falcatum [24] = assay: Ratio of thiophanate MIC to compound MIC for Glomerella tucumanensis after 7 days by food poison technique

SMILES | inhibition of growth at 100 ppm (Fusarium oxysporum [1]) [%] | inhibition of growth at 100 ppm (Colletotrichum falcatum [2]) [%] | inhibition of growth at 10 ppm (Curvularia pallescens [3]) [%] | inhibition of growth at 100 ppm (Curvularia pallescens [4]) [%] | inhibition of growth at 10 ppm (Colletotrichum falcatum [5]) [%] | inhibition of growth at 1000 ppm (Fusarium oxysporum [6]) [%] | inhibition of growth at 1000 ppm (Curvularia pallescens [7]) [%] | inhibition of growth at 10 ppm (Fusarium oxysporum [8]) [%] | inhibition of growth at 1000 ppm (Colletotrichum falcatum [9]) [%] | also measured
CCOP(=S)(OCC)O/C(=N\N=C1/C(=O)Nc2ccccc21)c1ccc(Cl)cc1 | 78.2 | 72.4 | 61.6 | 71.6 | 60.5 | 85.8 | 85.8 | 68.6 | 88.6 | –
CCOP(=S)(OCC)O/C(COc1ccccc1P(=S)(OCC)OCC)=N\N=C1/C(=O)Nc2ccccc21 | 80 | 81.2 | 72.8 | 79.9 | 72.5 | 92.8 | 93.8 | 71.6 | 95.6 | –
CCOP(=S)(OCC)O/C(=N\N=C1/C(=O)Nc2ccccc21)c1ccc(OP(=S)(OCC)OCC)cc1 | 68.2 | 68.2 | 56 | 66.2 | 58.2 | 82.4 | 81.4 | 57.1 | 87 | –
CCOP(=O)(OCC)O/C(COc1ccc(Cl)cc1)=N\N=C1/C(=O)Nc2ccccc21 | 74.2 | 71.6 | 60.9 | 71.8 | 64.8 | 85.6 | 82.6 | 61.8 | 80.2 | –
COC(=O)Nc1nc2ccccc2[nH]1 [CARBENDAZIM] | – | – | – | – | – | – | – | – | – | MIC (Colletotrichum falcatum [10]): 4000 µg/mL (≈ 20.9 mM); MIC (Fusarium oxysporum [11]): 3000 µg/mL (≈ 15.7 mM); MIC (Curvularia pallescens [12]): 4000 µg/mL (≈ 20.9 mM)
CCOP(=O)(OCC)O/C(COc1ccccc1P(=O)(OCC)OCC)=N\N=C1/C(=O)Nc2ccccc21 | 64 | 67.4 | 57.2 | 64.6 | 60.2 | 74.2 | 71.2 | 58.6 | 78.2 | –
CCOP(=S)(OCC)O/C(COc1ccc([N+](=O)[O-])cc1)=N\N=C1/C(=O)Nc2ccccc21 | 52.6 | 56.2 | 40.6 | 52.8 | 48.2 | 67.8 | 65.6 | 44.6 | 68.4 | –
COC(=O)NC(=S)Nc1ccccc1NC(=S)NC(=O)OC [THIOPHANATE METHYL] | – | – | – | – | – | – | – | – | – | MIC (Colletotrichum falcatum [10]): 4000 µg/mL (≈ 11.7 mM); MIC (Fusarium oxysporum [11]): 4000 µg/mL (≈ 11.7 mM); MIC (Curvularia pallescens [12]): 4000 µg/mL (≈ 11.7 mM)
CCOP(=O)(OCC)O/C(COc1ccc(OP(=O)(OCC)OCC)cc1)=N\N=C1/C(=O)Nc2ccccc21 | 69.2 | 70.2 | 62.8 | 70 | 61.5 | 78.6 | 76.4 | 60.2 | 80.6 | –
CCOP(=S)(OCC)O/C(=N\N=C1/C(=O)Nc2ccccc21)c1ccc([N+](=O)[O-])cc1 | 47.2 | 46.2 | 36.2 | 45.6 | 39.8 | 58.2 | 57.2 | 40 | 58.2 | –
CCOP(=O)(OCC)O/C(=N\N=C1/C(=O)Nc2ccccc21)c1ccc(Cl)cc1 | 67.8 | 64.2 | 51.6 | 62.4 | 56.8 | 72.6 | 71.2 | 54.2 | 69.6 | –
CCOP(=O)(OCC)O/C(=N\N=C1/C(=O)Nc2ccccc21)c1ccc(OP(=O)(OCC)OCC)cc1 | 58 | 62.4 | 51.8 | 51.7 | 52.3 | 71.5 | 67.8 | 52.6 | 69.2 | –
CCOP(=O)(OCC)O/C(COc1ccc([N+](=O)[O-])cc1)=N\N=C1/C(=O)Nc2ccccc21 | 45.8 | 48.6 | 34 | 42.8 | 38.6 | 61.5 | 55.6 | 37.2 | 60.2 | –
CCOP(=S)(OCC)O/C(=N\N=C1/C(=O)Nc2ccccc21)c1ccccc1 | 69.2 | 65.1 | 55.7 | 65.8 | 58.2 | 74.2 | 73.5 | 55.2 | 70.8 | –
CCOP(=O)(OCC)O/C(=N\N=C1/C(=O)Nc2ccccc21)c1ccccc1 | 50.4 | 49.4 | 40.4 | 49.2 | 40.3 | 61.8 | 59.8 | 41.2 | 60.8 | –
CCOP(=S)(OCC)O/C(COc1ccc(OP(=S)(OCC)OCC)cc1)=N\N=C1/C(=O)Nc2ccccc21 | 82.6 | 86.2 | 68.6 | 80.5 | 75.1 | 100 | 100 | 70.2 | 100 | Ratio (Fusarium oxysporum [13]): 2; Ratio (Curvularia pallescens [14]): 2; Ratio (Curvularia pallescens [15]): 2; Ratio (Fusarium oxysporum [16]): 2; Ratio (Fusarium oxysporum [17]): 2; Ratio (Colletotrichum falcatum [18]): 2; Ratio (Curvularia pallescens [19]): 2; Ratio (Curvularia pallescens [20]): 2; MIC (Colletotrichum falcatum [10]): 1000 µg/mL (≈ 1.62 mM); MIC (Fusarium oxysporum [11]): 1000 µg/mL (≈ 1.62 mM); Ratio (Colletotrichum falcatum [21]): 2; Ratio (Colletotrichum falcatum [22]): 2; Ratio (Fusarium oxysporum [23]): 2; Ratio (Colletotrichum falcatum [24]): 2; MIC (Curvularia pallescens [12]): 1000 µg/mL (≈ 1.62 mM)
CCOP(=O)(OCC)O/C(=N\N=C1/C(=O)Nc2ccccc21)c1ccccc1P(=O)(OCC)OCC | 56.2 | 59.9 | 47.7 | 56.7 | 51.5 | 66.5 | 65.6 | 49.8 | 68.8 | –
CCOP(=O)(OCC)O/C(=N\N=C1/C(=O)Nc2ccccc21)c1ccc([N+](=O)[O-])cc1 | 39.6 | 40.1 | 26.8 | 38.6 | 30.2 | 56.2 | 51.8 | 29.4 | 54.2 | –
CCOP(=O)(OCC)O/C(COc1ccccc1)=N\N=C1/C(=O)Nc2ccccc21 | 59.2 | 61.6 | 50.1 | 58.2 | 51.2 | 69.6 | 68.8 | 50 | 70.2 | –
CCOP(=S)(OCC)O/C(COc1ccccc1)=N\N=C1/C(=O)Nc2ccccc21 | 69.1 | 67 | 52.6 | 62.7 | 56.2 | 76.8 | 74.2 | 54 | 75.2 | –
CCOP(=S)(OCC)O/C(=N\N=C1/C(=O)Nc2ccccc21)c1ccccc1P(=S)(OCC)OCC | 66.5 | 67.2 | 54.2 | 64.2 | 57.6 | 82.8 | 80.5 | 55.2 | 86.6 | –
